In patent US10137199B2, “Thiolated hyaluronan-based hydrogels cross-linked using oxidized glutathione” (BioTime, Inc., priority 2013, dated 2018):

Tests used:
[1] = Gel formation of CMHA-S and Gelin-S with disulfide containing small molecules; format: physicochemical; conditions: thiolated biopolymers CMHA-S and Gelin-S
Method: Initially we tested whether GSSG would be a suitable reactant for a thiol-disulfide exchange reaction with thiolated biopolymers CMHA-S and Gelin-S to form a two-component (CMHA/Gelin/GSSG) gel with no additional crosslinking molecule (FIG. 1 where R′—SH represents Gelin-S). A gel formed in approximately three minutes using a final concentration of 4 mM GSSG and 0.4% w/v CMHA-S and 0.4% w/v Gelin-S (Sample 4, Table 1).

[2] = system: ADSC; test: Cell attachment on peptide functionalized CMHA/GSSG hydrogels, ADSC; format: cell-based, human; conditions: 15,000 cells/well, attach overnight, calcein AM
Method: After N-terminal maleimido-tagged peptides (Anaspec, Inc. Fremont, CCA) were resuspended in 1×PBS, 1 volume 10 mM peptide was mixed with nine volumes CMHA-S, and reaction was allowed to occur at room temperature in the dark, overnight. GSSG was added to a final concentration of 4 mM (brings peptide final concentration to 0.88 mM) and the mixture allowed to form gels in a 48-well multiwell plate. Unreacted peptides were removed by three washes of at least five volumes 1×PBS at 75 rpm 37° C., for at least 4 hr each. ADSC or BM-MSC in DMEM/10% FBS were then added to each well (15,000 cells/well in a 48 well plate) and allowed to attach overnight. On the final day, the cells were imaged by fluorescence using calcein AM stain.

| Compound | gel formation [1] | ADSC attachment [2] |
| --- | --- | --- |
| N[C@@H](CS)C(=O)O [cysteine] | did not cause gel formation | – |
| OC1CSSCC1O (stereo not drawn) [oxidized DT] | did not cause gel formation | – |
| CRGDS | – | poor robustness |
